Experimental data from patent US20070155824A1, “USE OF BENZO-FUSED HETEROCYCLE SULFAMIDE DERIVATIVES FOR DISEASE MODIFICATION / EPILEPTOGENESIS” (priority 2005, published 2007).

Tests used:
[1] = system: amygdala kindled rat model of partial epilepsy; experiment: In Vivo, Amygdala Kindling Assay; set-up: species or system Sprague-Dawley rats; conditions: rats
Description: The development of amygdala kindling is an established model of epileptogenesis. (Amano K, Hamada K, Yagi K, Seino M. Antiepileptic effects of topiramate on amygdaloid kindling in rats. Epilepsy Res. 1998 Jul;31(2):123-8; Barton M E, White H S. The effect of CGX-1007 and CI-1041, novel NMDA receptor antagonists, on kindling acquisition and expression. Epilepsy Res. 2004 Mar;59(1):1-12; Loscher W, Honack D, Rundfeldt C. Antiepileptogenic effects of the novel anticonvulsant levetiracetam (ucb L059)in the kindling model of temporal lobe epilepsy. J Pharmacol Exp Ther. 1998 Feb;284(2):474-9; McNamara J O. Analyses of the molecular basis of kindling development. Psychiatry Clin Neurosci. 1995 June; 49(3):S175-8. Review.; Morimoto K, Katayama K, Inoue K, Sato K. Effects of competitive and noncompetitive NMDA receptor antagonists on kindling and LTP. Pharmacol Biochem Behav. 1991 Dec;40(4):893-9; Racine, R. J. 1972. Modification of seizure activity by electrical stimulation. II. Motor seizure. Electroencephalogr. Clin. Neurophysiol. 32, 281-294). The kindled rat model of partial epilepsy is an accepted model of epileptogenesis (McNamara J O. Analyses of the molecular basis of kindling development. Psychiatry Clin Neurosci. 1995 Jun;49(3):S1 75-8. Review.).
Briefly, the assay procedure was as follows. Adult male, Sprague-Dawley rats weighing between 250-300 g were obtained from Charles River, Wilmington, Mass. All the animals were housed on a 12:12 light dark cycle and permitted free access to both food (Prolab RMH 3000) and water except when removed from the home cage for experimental procedures. Animals were cared for in a matter consistent with the recommendations detailed in the National Research Council Publication, “Guide for the Care and Use of Laboratory Animals” in a temperature controlled, pesticide-free facility. Kindling stimulations were routinely performed between 9 AM-2 PM to avoid any circadian variations.
Compound #8 was triturated in a small volume of 0.5% methylcellulose, sonicated for 10 min, and brought to a final volume with 0.5% methylcellulose. Compound #8 was administered systemically (i.p.) in a volume of 0.04 ml/10 g body weight and all tests were conducted at the pre-determined time of peak effect of 0.5 hours after i.p. administration.
The ability of Compound #8 to block the expression of amygdala kindled seizures was determined as follows. Rats were anaesthetized with a ketamine (120 mg/kg, i.p.) and xylazine (12 mg/kg, i.p.) cocktail. […]
Amygdala kindling was then performed according to the following protocol. […] The behavioral seizure score and AD duration was recorded for rats in each treatment group. […]

Compound | behavioral seizure score (Racine scale) at the conclusion of the drug- and stimulus-free period ([1]; 75 mg/kg i.p. 30 min before daily amygdala stimulation (200 μA, 2 s) for up to 13 days, re-challenge without drug after one-week drug- and stimulus-free period, vehicle=4.6±0.24) | acquisition of the full generalized kindled seizure ([1]; 75 mg/kg i.p. during kindling acquisition) | after-discharge (AD) duration over the kindling acquisition phase vs vehicle ([1]; 75 mg/kg i.p., daily stimulation, progressive increase in both groups) | delay of acquisition of kindling ([1]; stimulated in the absence of drug after the drug-free week, seizure score rose parallel to vehicle) | melting point [°C]
NS(=O)(=O)NC[C@H]1COc2cc(Cl)ccc2O1 [Compound #8, (2S)-(−)-N-(6-Chloro-2,3-dihydro-benzo[1,4]dioxin-2-ylmethyl)-sulfamide] | 1.4±0.40 | prevented the acquisition of the full generalized kindled seizure | No statistical difference between treatment groups | delayed the acquisition of kindling by several days | 
NS(=O)(=O)NCC1CCc2ccccc2O1 (centres unmarked) [Compound #10, Chroman-2-ylmethylsulfamide] |  |  |  |  | 100 to 101
